Results as given in US5854282A, “3-benzoyl benzofuran derivatives as thyroid hormone antagonists” (Karo Bio AB, priority 1994, dated 1998).

Columns and labels:
[1] = molecular target: T1, human thyroid hormone receptor β1 (ThRβ1) (Homo sapiens, UniProt P10828); test: Competition with 125I-T3 for binding to human thyroid hormone receptor β1 (ThRβ1); conditions: competition with 0.2 nM 125I-T3
T1 sequence (P10828 1-461): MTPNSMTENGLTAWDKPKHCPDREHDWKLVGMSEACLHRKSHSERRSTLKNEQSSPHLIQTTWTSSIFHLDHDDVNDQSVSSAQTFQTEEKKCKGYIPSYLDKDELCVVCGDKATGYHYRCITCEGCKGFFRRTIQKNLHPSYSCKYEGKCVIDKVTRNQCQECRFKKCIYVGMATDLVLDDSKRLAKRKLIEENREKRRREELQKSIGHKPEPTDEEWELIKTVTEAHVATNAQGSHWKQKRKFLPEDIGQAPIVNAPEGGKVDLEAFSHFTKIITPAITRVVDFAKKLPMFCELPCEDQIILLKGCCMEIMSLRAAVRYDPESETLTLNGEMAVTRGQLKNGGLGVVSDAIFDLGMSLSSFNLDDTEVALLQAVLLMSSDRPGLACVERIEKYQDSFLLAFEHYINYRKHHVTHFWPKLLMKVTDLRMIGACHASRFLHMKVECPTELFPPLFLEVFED
Procedure: (§1) A series of dilutions of each compound produced (Examples 1-15) were allowed to compete with a fixed concentration (0.2 nM) of ^125 I-T3 for binding to the human thyroid hormone receptor β1 (ThRβ1). In some examples, binding to the human thyroid hormone receptor α1 (ThRα1) was included.
(§2) After reaching equilibrium a separation step on Sephadex-G25 columns was introduced whereby the receptors were separated from compounds of low molecular weight (i.e the radioactive labeled hormones). The eluated receptor bound radioactivity was measured in a gamma-counter or with regular liquid scintillation counting.
(§3) An IC50 -value (The concentration of compound required to inhibit 50% of the binding of radioactive labeled hormone) was calculated from the curves.

[2] = molecular target: T2, human thyroid hormone receptor α (Homo sapiens, UniProt P10827); test: ALP reporter gene activity in TRAF α thyroid hormone reporter cells (agonism/antagonism ± T3); type: cell-based; conditions: for antagonism to T3 in the ThRα reporter cell line / augmention of the agonism of T3 in the ThRα reporter cell line: in the presence of 1 nM T3; for partial agonist/antagonist activity in the ThRα reporter cell line: ±1 nM T3
T2 sequence (P10827 1-370): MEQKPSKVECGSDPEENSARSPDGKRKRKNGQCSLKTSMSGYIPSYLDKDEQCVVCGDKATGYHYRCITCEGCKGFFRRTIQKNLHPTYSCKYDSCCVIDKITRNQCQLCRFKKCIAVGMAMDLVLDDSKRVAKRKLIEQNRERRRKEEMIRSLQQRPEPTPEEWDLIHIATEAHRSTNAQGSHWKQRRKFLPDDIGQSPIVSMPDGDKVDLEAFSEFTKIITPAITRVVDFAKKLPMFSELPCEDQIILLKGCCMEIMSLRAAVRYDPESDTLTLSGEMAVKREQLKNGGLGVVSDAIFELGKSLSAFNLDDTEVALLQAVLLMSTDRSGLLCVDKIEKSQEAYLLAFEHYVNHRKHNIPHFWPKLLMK
Procedure: (§4) The biological activity of compounds in accordance with the invention was tested in thyroid hormone responsive reporter cell lines.
(§5) The thyroid hormone reporter cell lines (TRAF α and TRAF β) are genetically engineered, mammalian cell lines expressing thyroid hormone receptor (ThR) α and β, respectively. These thyroid hormone responding cell lines contain stable integrated artificial transcription units comprised of a thyroid hormone response element (TRE) and core promoter sequences fused to a downstream reporter gene encoding a secreted form of alkaline phosphatase (ALP).
(§6) In the absence of thyroid hormone the cells express only very low levels of the ALP reporter protein. […] The level of thyroid hormone dependent ALP protein expressed can be determined indirectly by an enzymatic chemiluminescence assay as previously described (Advances in Steroid Analysis '93, editor: Gorog S., Proceedings of the 5th Symposium on the analysis of Steroids, Published by Akademiai Kiado, Budapest, Hungary, p. 57-67). Briefly, an aliquot of the conditioned cell culture medium is mixed with AMPPD (disodium 3-4-methoxyspiro(1,2-dioxetane-3,2'-tricyclo(3,3.1)decan)-4-yl) phenyl phosphate containing assay buffer and incubated at 37° C. for 20 minutes. AMPPD was purchased from Boule Diagnostic, Sweden. The ALP in the medium sample dephosphorylates AMPPD generating an unstable intermediate which decomposes and emits light which is measured in a microplate format luminometer (Luminoskan, Labsystems, Finland). The rate of light emission is directly proportional to the level of ALP present in the sample.
The TRAF α and β cells, respectively, were seeded at a density of 2-2.5×10^4 cells/well in 96-well microtiterplates (suitable for growth of mammalian cells). The cells were seeded in Coon's medium (without phenolred) (SVA, Uppsala, Sweden)+10% FCS (Gibco-BRL) (hormone stripped) and cultivated overnight at 37° C. and 5% CO2 in a humidified incubator.
The cells were then cultivated at 37° C. and 5% CO2 in a humidified incubator for an additional 48 hours.
48 hours post addition of the hormonal/test compounds, cell number and cell morphology were examined under the light-microscope. A 10 μl aliquot of conditioned medium from each well was then transferred to white microtiterplates and assayed for the level of ALP reporter protein expressed (as described in Advances in Steroid Analysis '93 above). In addition, the cell toxic effect of compounds was determined by the colorimetric MTS/PMS assay according to the suppliers recommendation (Promega Corp. through Scandinavian Diagnostic Services, Sweden)
Hormone/test compounds added to the TRAF α and β reporter cells, respectively, per well in 96-well microtiter plates

[3] = molecular target: T3, human thyroid hormone receptor α1 (ThRα1) (Homo sapiens, UniProt P10827); test: Competition with 125I-T3 for binding to human thyroid hormone receptor α1 (ThRα1); conditions: competition with 0.2 nM 125I-T3
T3 sequence (P10827 1-410 isoform P10827-2): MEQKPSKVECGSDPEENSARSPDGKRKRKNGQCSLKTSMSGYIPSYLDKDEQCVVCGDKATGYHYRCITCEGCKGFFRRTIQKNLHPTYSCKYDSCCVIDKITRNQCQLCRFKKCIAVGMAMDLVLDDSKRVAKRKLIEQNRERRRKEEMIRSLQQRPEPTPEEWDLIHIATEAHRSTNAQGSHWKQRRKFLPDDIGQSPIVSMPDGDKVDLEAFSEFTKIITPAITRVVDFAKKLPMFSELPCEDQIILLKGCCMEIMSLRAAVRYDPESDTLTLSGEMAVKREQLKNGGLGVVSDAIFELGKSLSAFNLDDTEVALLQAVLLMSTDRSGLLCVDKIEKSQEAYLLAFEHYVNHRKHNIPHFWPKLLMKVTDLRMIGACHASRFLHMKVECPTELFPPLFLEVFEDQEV
Procedure: as §1, §2, §3

[4] = molecular target: T4, human thyroid hormone receptor β (Homo sapiens, UniProt P10828); test: ALP reporter gene activity in TRAF β thyroid hormone reporter cells (agonism/antagonism ± T3); type: cell-based; conditions: for antagonist activity in the ThRβ reporter cell line: in the presence of 1 nM T3
T4 sequence (P10828 1-461): T1 sequence (P10828 1-461)
Procedure: as §4, §5, §6
The TRAF α and β cells, respectively, were seeded at a density of 2-2.5×10^4 cells/well in 96-well microtiterplates (suitable for growth of mammalian cells). […]
48 hours post addition of the hormonal/test compounds, cell number and cell morphology were examined under the light-microscope. […] In addition, the cell toxic effect of compounds was determined by the colorimetric MTS/PMS assay according to the suppliers recommendation (Promega Corp. through Scandinavian Diagnostic Services, Sweden) […]

IC50 [1] [µM]	IC50 [3] [µM]	Compound	also measured
2.24		CCCCc1oc2ccc(NS(=O)(=O)C(F)(F)F)cc2c1C(=O)c1cc(I)c(OCC(=O)O)c(I)c1 [Example 1, 2-n-Butyl-3(3,5-diiodo-4-carboxymethoxybenzoyl)-5-trifluoromethylsulphonamidobenzofuran]	antagonism to T3 in the ThRα reporter cell line [2]: no antagonism to T3; augmention of the agonism of T3 in the ThRα reporter cell line [2]: concentration dependent augmention of the agonism of T3
6.61		CCCCc1oc2ccc(NC(=O)C(C)C)cc2c1C(=O)c1cc(I)c(OCC(=O)O)c(I)c1 [Example 2]	antagonism to T3 in the ThRα reporter cell line [2]: no antagonism to T3; augmention of the agonism of T3 in the ThRα reporter cell line [2]: concentration dependent augmention of the agonism of T3
1.51		CCCCc1oc2ccc(NC(=O)c3ccc(OC)cc3)cc2c1C(=O)c1cc(I)c(OCC(=O)O)c(I)c1 [Example 3, 2-n-Butyl-3-(3,5-diiodo-4-carboxymethoxybenzoyl)-5-(4-methoxybenzamido)benzofuran]	
2.04	2.51	CCCCc1oc2ccc(NC(=O)c3ccc(O)cc3)cc2c1C(=O)c1cc(I)c(OCC(=O)O)c(I)c1 [Example 4, 2-n-Butyl-3-(3,5-diiodo-4-carboxymethoxybenzoyl)-5-(4-hydroxybenzamido)benzofuran]	
7.94		CC(C)c1oc2ccc(NS(=O)(=O)C(F)(F)F)cc2c1Cc1cc(I)c(OCC(=O)O)c(I)c1 [Example 5, 2-Isopropyl-3-(3,5-diiodo-4-carboxymethoxybenzyl)-5-trifluoromethylsulphonamidobenzofuran]	antagonism to T3 in the ThRα reporter cell line [2]: no antagonism to T3; augmention of the agonism of T3 in the ThRα reporter cell line [2]: concentration dependent augmention of the agonism of T3
3.72		CC(C)c1oc2ccc(NS(=O)(=O)C(F)(F)F)cc2c1C(=O)c1cc(I)c(OCC(=O)O)c(I)c1 [Example 6, 2-isopropyl-3-(3,5-diiodo-4-carboxymethoxybenzoyl)-5-trifluoromethylsulphonamidobenzofuran]	
3.63		COc1ccc(C(=O)Nc2ccc3oc(C(C)C)c(C(=O)c4cc(I)c(OCC(=O)O)c(I)c4)c3c2)cc1 [Example 7, 2-Isopropyl-3-(3,5-diiodo-4-carboxymethoxybenzoyl)-5-(4-methoxybenzamido)benzofuran]	
1.82		CC(C)c1oc2ccc(NC(=O)c3ccc(O)cc3)cc2c1C(=O)c1cc(I)c(OCC(=O)O)c(I)c1 [Example 8, 2-Isopropyl-3-(3,5-diiodo-4-carboxymethoxybenzoyl)-5-(4-hydroxybenzamido)benzofuran]	
3.55	3.31	CCCCc1oc2ccc(NC(=O)c3ccc(F)cc3)cc2c1C(=O)c1cc(I)c(OCC(=O)O)c(I)c1 [Example 9, 2-n-Butyl-3-(3,5-diiodo-4-carboxymethoxybenzoyl)-5-(4-fluorobenzamido)benzofuran]	
4.27		CC(C)c1oc2ccc(NC(=O)c3ccc([N+](=O)[O-])cc3)cc2c1C(=O)c1cc(I)c(OCC(=O)O)c(I)c1 [Example 10, 2-Isopropyl-3-(3,5-diiodo-4-carboxymethoxybenzoyl)-5-(4-nitrobenzamido)benzofuran]	
3.72	3.24	CCCCc1oc2ccc(NC(=O)Nc3ccc(OC)cc3)cc2c1C(=O)c1cc(I)c(OCC(=O)O)c(I)c1 [Example 11, 2-n-Butyl-3-(3,5-diiodo-4-carboxymethoxybenzoyl)-5-(4-methoxyphenylureido)benzofuran]	partial agonist/antagonist activity in the ThRα reporter cell line [2]: partial agonist/antagonist activity; partial agonist/antagonist activity in the ThRβ reporter cell line ([4]; ±1 nM T3): partial agonist/antagonist activity
1.26	1.82	CCCCc1oc2ccc(NC(=O)Nc3ccc(O)cc3)cc2c1C(=O)c1cc(I)c(OCC(=O)O)c(I)c1 [Example 12, 2-n-Butyl-3-(3,5-diiodo-4-carboxymethoxybenzoyl)-5-(4-hydroxyphenylureido)benzofuran]	
2.4	2.57	CCCCc1oc2ccc(NC(=O)c3ccc(O)cc3)cc2c1C(=O)c1cc(Br)c(OCC(=O)O)c(Br)c1 [Example 13, 2-n-Butyl-3-(3,5-dibromo-4-carboxymethoxybenzoyl)-5-(4-hydroxybenzamido)benzofuran]	
3.47	3.63	COc1ccc(C(=O)Nc2ccc3oc(C(C)C)c(C(=O)c4cc(Br)c(OCC(=O)O)c(Br)c4)c3c2)cc1 [Example 14, 2-Isopropyl-3-(3,5-dibromo-4-carboxymethoxybenzoyl)-5-(4-methoxybenzamido)benzofuran]	partial agonist/antagonist activity in the ThRα reporter cell line [2]: partial agonist/antagonist activity; antagonist activity in the ThRβ reporter cell line [4]: no or only weak antagonist activity
3.31	3.09	CC(C)c1oc2ccc(NC(=O)c3ccc(O)cc3)cc2c1C(=O)c1cc(Br)c(OCC(=O)O)c(Br)c1 [Example 15, 2-Isopropyl-3-(3,5-dibromo-4-carboxymethoxybenzoyl)-5-(4-hydroxybenzamido)benzofuran]	partial agonist/antagonist activity in the ThRα reporter cell line [2]: partial agonist/antagonist activity; antagonist activity in the ThRβ reporter cell line [4]: no or only weak antagonist activity
